# Test results published in patent publication US8815940B2, “Coumarin-chalcones as anticancer agents” (Council of Scientific & Industrial Research, priority 2010, dated 2014).
# Read-outs that look alike come from different tables or passages of the source.
# Key:
# [1] = system: MCF-7 (breast adenocarcinoma); experiment: sulforhodamine B cell cytotoxicity assay, MCF-7; assay type: cell-based; conditions: Homo sapiens, MCF7; Table 2; SRB assay, 48 h of exposure
# Description: (§1) The human cancer cell lines—KB (oral squamous cell carcinoma). C33A (cervical carcinoma), MCF-7 (breast adenocarcinoma), A549 (lung carcinoma) and mouse embryo fibroblast (NIH3T3) were obtained from American Type Culture Collection (ATCC), USA. These cells were grown in recommended media supplemented with 10% FBS, 50 μg/mL gentamycin and 2.5 μg/mL amphotericin B in a 5% CO2 humidified atmosphere at 37° C. Cells below 15 passage level were used for this study. A colorimetric sulforhodamine B assay was used for the measurement of cell cytotoxicity. 1×10^4 cells (in 180 μL) were added to each well of 96-well plate and incubated overnight to allow for cell attachment. Cells were then treated with serial two-fold dilutions of test compounds (100 to 1.6 μM) and untreated cells receiving the same volume of medium served as control. After 48 h of exposure, cells were fixed with ice-cold 50% TCA, stained with 0.4% (w/v) SRB in 1% acetic acid, washed and air dried. Bound dye was dissolved in 150 μL of 10 mM tris base. The plates were read at 540 nm absorbance on plate reader (Polarstar Galaxy, BMG, Germany). The cytotoxic effects of compounds were calculated as % inhibition in cell growth as per the formula […].
# [2] = system: A549 (lung carcinoma); experiment: sulforhodamine B cell cytotoxicity assay, A549; assay type: cell-based; conditions: Homo sapiens, Table 2, SRB assay, 48 h of exposure
# Description: as §1
# [3] = system: KB (oral squamous cell carcinoma); experiment: sulforhodamine B cell cytotoxicity assay, KB; assay type: cell-based; conditions: Homo sapiens; Table 2; SRB assay, 48 h of exposure
# Description: as §1
# [4] = system: HeLa Human cervical cancer cells; experiment: human tumor xenograft in SCID mice, tumor growth; assay type: in vivo; conditions: ADR 2 mg/kg I.V. Q7dx3
# Description: (§2) The in vivo efficacy studies were performed using human tumor xenografts in SCID mice. Human cervical cancer cells (HeLa) were injected subcutaneously (1×10^7 cells in 100 μl HBSS medium) on the right flank of each mouse. Tumor bearing mice were divided randomly into treatment groups and the treatment schedules began on day 7 of the xenograft. The test compound (S009-0131) was administered orally to each mouse at a daily dose of 100 mg/kg body weight, for 15 days. The standard anti-cancer drug Adriamycin (ADR) was used as ‘positive’ control and given to each mouse as an i.v. dose of 2 mg/kg body weight, Q7d×3 ([…]). The group of vehicle treated animals served as ‘negative’ control.
# (§3) The tumor volume, body weight and signs of overt toxicity were monitored and recorded for the entire duration of the experiment (60 days). Tumor volumes were calculated using the formula (a×b2)/2, where a, b are two longest perpendicular diameters. Tumor growth was expressed in terms of relative tumor volume (RTV) which is the ratio of tumor volume on a particular day to the tumor volume on day 1 of the study. Tumor growth inhibition index (T/C) was calculated as follows: T/C=Average RTV of test group mice/Average RTV of control group mice.
# [5] = animal weight and overt toxicity in the xenograft study; assay type: in vivo, SCID mice; conditions: ADR 2 mg/kg I.V. Q7dx3
# Description: as §2, §3
# [6] = system: C33A (cervical carcinoma); experiment: sulforhodamine B cell cytotoxicity assay, C33A; assay type: cell-based, human; conditions: Homo sapiens, C-33-A, SRB assay, 48 h of exposure
# Description: as §1
# [7] = system: mouse embryo fibroblast (NIH3T3); experiment: sulforhodamine B cell cytotoxicity assay, NIH3T3 non-cancer cells; assay type: cell-based; conditions: 48 h of exposure
# Description: as §1
# [8] = Table 2, read-out: IC50 C33A (Cervical)
# [9] = Table 1, SRB assay, read-out: IC50 NIH3T3 (mouse fibroblast)
# [10] = Table 1, read-out: IC50 C33A (cervical cancer)
# [11] = Table 2, SRB assay, read-out: IC50 NIH3T3 (Non-cancer, fibroblast)
smiles,measurement,setting,value
"COc1cccc2c1C(=O)c1c(O)c3c(c(O)c1C2=O)C[C@@](O)(C(=O)CO)C[C@@H]3O[C@H]1C[C@H](N)[C@H](O)[C@H](C)O1 [Doxorubicin, reference compound]",IC50,[1],0.61 µM
same,IC50,[2],0.52 µM
same,IC50,[3],0.22 µM
same,RTV (relative tumor volume),[4]; day 1,1
same,T/C (tumor growth inhibition index),[4]; day 1,1
same,RTV (relative tumor volume),[4]; day 5,0.69
same,T/C (tumor growth inhibition index),[4]; day 5,0.53
same,RTV (relative tumor volume),[4]; day 9,0.72
same,T/C (tumor growth inhibition index),[4]; day 9,0.44
same,RTV (relative tumor volume),[4]; day 12,0.92
same,T/C (tumor growth inhibition index),[4]; day 12,0.47
same,RTV (relative tumor volume),[4]; day 15,1.39
same,T/C (tumor growth inhibition index),[4]; day 15,0.43
same,RTV (relative tumor volume),[4]; day 19,1.65
same,T/C (tumor growth inhibition index),[4]; day 19,0.45
same,RTV (relative tumor volume),[4]; day 22,3.52
same,T/C (tumor growth inhibition index),[4]; day 22,0.68
same,RTV (relative tumor volume),[4]; day 25,3.84
same,T/C (tumor growth inhibition index),[4]; day 25,0.62
same,RTV (relative tumor volume),[4]; day 29,4.60
same,T/C (tumor growth inhibition index),[4]; day 29,0.63
same,RTV (relative tumor volume),[4]; day 33,4.69
same,T/C (tumor growth inhibition index),[4]; day 33,0.47
same,T/C (tumor growth inhibition index),[4]; day 37,0.58
same,T/C (tumor growth inhibition index),[4]; day 41,0.49
same,T/C (tumor growth inhibition index),[4]; day 44,0.43
same,T/C (tumor growth inhibition index),[4]; day 51,0.43
same,Average Animal weight,[5]; day 1,20.7 grams
same,Average Animal weight,[5]; day 5,20.9 grams
same,Average Animal weight,[5]; day 9,20.6 grams
same,Average Animal weight,[5]; day 12,20.3 grams
same,Average Animal weight,[5]; day 15,19.6 grams
same,Average Animal weight,[5]; day 19,18.3 grams
same,Average Animal weight,[5]; day 22,19.7 grams
same,Average Animal weight,[5]; day 25,19.9 grams
same,Average Animal weight,[5]; day 29,20.4 grams
same,Average Animal weight,[5]; day 33,20.6 grams
same,Average Animal weight,[5]; day 37,24.8 grams
same,Average Animal weight,[5]; day 41,21.8 grams
same,Average Animal weight,[5]; day 44,22.1 grams
same,Average Animal weight,[5]; day 51,21.2 grams
same,IC50,[6]; [8],0.82 µM
"CCC(C)c1cc(/C=C/C(=O)c2ccc(C)cc2)cc(C=O)c1O (centres unmarked) [Example S008-0392, (E)-3-sec-butyl-2-hydroxy-5-(3-oxo-3-p-tolylprop-1-enyl)benzaldehyde]",IC50,[7]; [9],129 µM
same,IC50,[6]; [10],10.2 µM
"CCOC(=O)c1cc2cc(C=CC(=O)c3ccccc3)cc(C(C)CC)c2oc1=O (centres unmarked) [Example S009-0132, Ethyl 8-sec-butyl-2-oxo-6-(3-oxo-3-phenylprop-1-enyl)-2H-chromene-3-carboxylate]",IC50,[7]; [11],> 150 µM
same,IC50,[1],88.1 µM
same,IC50,[2],12.9 µM
same,melting point,,155 to 156 °C
same,IC50,[3],10.5 µM
same,IC50,[6]; [8],8.12 µM
"CCC(C)c1cc(C=CC(=O)c2ccccc2)cc2cc(C(=O)OC)c(=O)oc12 (centres unmarked) [Example S009-0133, Methyl 8-sec-butyl-2-oxo-6-(3-oxo-3-phenylprop-1-enyl)-2H-chromene-3-carboxylate]",IC50,[7]; [11],> 150 µM
same,IC50,[1],11.4 µM
same,IC50,[2],10.7 µM
same,melting point,,139 to 140 °C
same,IC50,[3],13.4 µM
same,IC50,[6]; [8],6.28 µM
"CCOC(=O)c1cc2cc(C=CC(=O)c3ccc(Cl)cc3)cc(C(C)CC)c2oc1=O (centres unmarked) [Example S009-0135, Ethyl 8-sec-butyl-6-(3-(4-chlorophenyl)-3-oxoprop-1-enyl)-2-oxo-2H-chromene-3-carboxylate]",IC50,[7]; [11],38.4 µM
same,IC50,[1],11.1 µM
same,IC50,[2],12.8 µM
same,IC50,[3],14.3 µM
same,IC50,[6]; [8],4.54 µM
"CCC(C)c1cc(C=CC(=O)c2ccc(Cl)cc2)cc2cc(C(=O)OC)c(=O)oc12 (centres unmarked) [Example S009-0136, Methyl 8-sec-butyl-6-(3-(4-chlorophenyl)-3-oxoprop-1-enyl)-2-oxo-2H-chromene-3-carboxylate]",IC50,[7]; [11],42.4 µM
same,IC50,[1],10.8 µM
same,IC50,[2],16.7 µM
same,melting point,,145 to 146 °C
same,IC50,[3],28.2 µM
same,IC50,[6]; [8],5.9 µM
"CCOC(=O)c1cc2cc(C=O)cc(C(C)CC)c2oc1=O (centres unmarked) [Example S009-0139, Ethyl 8-sec-butyl-6-formyl-2-oxo-2H-chromene-3-carboxylate]",IC50,[7]; [9],> 150 µM
same,IC50,[7]; [11],> 150 µM
same,IC50,[1],113 µM
same,IC50,[2],147 µM
same,melting point,,89 to 90 °C
same,IC50,[3],132 µM
same,IC50,[6]; [10],64.3 µM
same,IC50,[6]; [8],64.3 µM
"CCN(CC)C(=O)c1cc2cc(/C=C/C(=O)c3ccc(C)cc3)cc(C(C)(C)C)c2oc1=O [Example S010-1992, (E)-8-tert-butyl-N,N-diethyl-2-oxo-6-(3-oxo-3-p-tolylprop-1-enyl)-2H-chromene-3-carboxamide]",IC50,[7]; [11],> 150 µM
same,IC50,[1],< 7.01 µM
same,IC50,[2],1.5 µM
same,melting point,,170 to 171 °C
same,IC50,[3],2.02 µM
same,IC50,[6]; [8],1.53 µM
"CCC(C)c1cc(/C=C/C(=O)c2ccc(C)cc2)cc2cc(C(=O)NC)c(=O)oc12 (centres unmarked) [Example S010-1994, (E)-8-sec-butyl-N-methyl-2-oxo-6-(3-oxo-3-p-tolylprop-1-enyl)-2H-chromene-3-carboxamide]",melting point,,215 to 216 °C
"CCNC(=O)c1cc2cc(/C=C/C(=O)c3ccc(C)cc3)cc(C(C)CC)c2oc1=O (centres unmarked) [Example S010-1995, (E)-8-sec-butyl-N-ethyl-2-oxo-6-(3-oxo-3-p-tolylprop-1-enyl)-2H-chromene-3-carboxamide]",IC50,[7]; [11],> 150 µM
same,IC50,[1],22.2 µM
same,IC50,[2],> 150 µM
same,melting point,,162 to 163 °C
same,IC50,[3],10.7 µM
same,IC50,[6]; [8],5.56 µM
"CCC(C)c1cc(/C=C/C(=O)c2ccc(C)cc2)cc2cc(C(=O)N(CC)CC)c(=O)oc12 (centres unmarked) [Example S010-1996, (E)-8-sec-butyl-N,N-diethyl-2-oxo-6-(3-oxo-3-p-tolylprop-1-enyl)-2H-chromene-3-carboxamide]",IC50,[7]; [11],> 150 µM
same,IC50,[1],< 7.01 µM
same,IC50,[2],3.77 µM
same,melting point,,146 to 147 °C
same,IC50,[3],3.55 µM
same,IC50,[6]; [8],3.12 µM
"CCOC(=O)c1cc2cc(/C=C/C(=O)c3cc(OC)c(OC)c(OC)c3)cc(C(C)CC)c2oc1=O (centres unmarked) [Example S010-2000, (E)-ethyl 8-sec-butyl-2-oxo-6-(3-oxo-3-(3,4,5-trimethoxyphenyl)prop-1-enyl)-2H-chromene-3-carboxylate]",IC50,[7]; [11],> 150 µM
same,IC50,[1],11.5 µM
same,IC50,[2],11.6 µM
same,melting point,,128 to 129 °C
same,IC50,[3],9.36 µM
same,IC50,[6]; [8],5.72 µM
"CCC(C)c1cc(/C=C/C(=O)c2cc(OC)c(OC)c(OC)c2)cc2cc(C(=O)OC)c(=O)oc12 (centres unmarked) [Example S010-2001, (E)-methyl 8-sec-butyl-2-oxo-6-(3-oxo-3-(3,4,5-trimethoxyphenyl)prop-1-enyl)-2H-chromene-3-carboxylate]",IC50,[7]; [11],> 150 µM
same,IC50,[1],10.2 µM
same,IC50,[2],3.68 µM
same,melting point,,138 to 139 °C
same,IC50,[3],3.1 µM
same,IC50,[6]; [8],2.56 µM
"COC(=O)c1cc2cc(/C=C/C(=O)c3cc(OC)c(OC)c(OC)c3)cc(C(C)(C)C)c2oc1=O [Example S010-2003, (E)-methyl 8-tert-butyl-2-oxo-6-(3-oxo-3-(3,4,5-trimethoxyphenyl)prop-1-enyl)-2H-chromene-3-carboxylate]",IC50,[7]; [11],> 150 µM
same,IC50,[1],13.3 µM
same,IC50,[2],11.1 µM
same,melting point,,145 to 146 °C
same,IC50,[3],8.3 µM
same,IC50,[6]; [8],4.99 µM
"Cc1ccc(C(=O)/C=C/c2cc(C(C)(C)C)c3oc(=O)c(C(=O)O)cc3c2)cc1 [Example-9, (E)-8-tert-butyl-2-oxo-6-(3-oxo-3-p-tolylprop-1-enyl)-2H-chromene-3-carboxylic Acid]",melting point,,185 to 186 °C
